One test has as its system KASUMI-10. Put plainly: selective drug sensitivity score (sDSS, relative to normal bone marrow) (sDSS (score)); higher = more potent and effective on the cell line relative to normal bone marrow cells. Conditions: 72 h.
Consider `Oc1ncnc2[nH]ncc12` [Allopurinol] (top concentration 10000 nM), for which the “selective drug sensitivity score” value was -0.64.
As for `CC(C)n1cnc2c(NCCc3ccc(O)cc3)nc(-c3csc4ccccc34)nc21` [StemRegenin_1] (top concentration 10000 nM), the “selective drug sensitivity score” value is -1.8.
Regarding `C#Cc1cccc(Nc2ncnc3cc4c(cc23)OCCOCCOCCO4)c1` [Icotinib] (top concentration 10000 nM), the “selective drug sensitivity score” value is 0.
`CN[C@@H](C)C(=O)N[C@H]1CN(C(=O)CC(C)C)CC[C@H]2CC[C@@H](C(=O)NC(c3ccccc3)c3ccccc3)N2C1=O` [AT-406] (top concentration 10000 nM): the “selective drug sensitivity score” value was -1.26.
Same read-out and setting: the figure for `CC(C)(O)CC(=O)NCCn1ccc2ncnc(Nc3ccc(Oc4cccc(C(F)(F)F)c4)c(Cl)c3)c21` [TAK-285] (top concentration 2500 nM) is 0; for `COc1cc(C)[nH]c(=O)c1CNC(=O)c1c(C)n([C@H](C)C2CCOCC2)c2ccccc12` [CPI-360] (top concentration 10000 nM) it is 0; for `Cc1cc2c(C(=O)NC[C@H](C)c3ccccc3)c(O)c(O)cc2c(O)c1-c1c(C)cc2c(C(=O)NC[C@H](C)c3ccccc3)c(O)c(O)cc2c1O` [Sabutoclax] (top concentration 25000 nM) it is 5.18.
As to `CC(C)(C)C[C@@H]1N[C@@H](C(=O)N[C@H]2CC[C@H](O)CC2)[C@H](c2cccc(Cl)c2F)[C@]12C(=O)Nc1cc(Cl)ccc12` (top concentration 10000 nM), the “selective drug sensitivity score” value amounted to 12.5.
On to `C[C@@H]1C[C@H]2[C@@H]3CCC4=CC(=O)C=C[C@]4(C)[C@@]3(F)[C@@H](O)C[C@]2(C)[C@@]1(O)C(=O)CO` [Dexamethasone] (top concentration 10000 nM), for which the “selective drug sensitivity score” value is -1.52.

A further test concerns KASUMI-9. Described as above. Conditions: 72 h.
Take `Nc1nc2cc(-c3ccc4ncc(C(=O)N5CCOCC5)n4c3)ccc2o1` [Serabelisib] (top concentration 10000 nM): the “selective drug sensitivity score” value was 2.56.
For the compound `COc1cccc(-c2ccc(NC(=O)C3=C(C(=O)O)CCC3)c(F)c2)c1` [Vidofludimus] (top concentration 10000 nM), the “selective drug sensitivity score” value is 2.7.
Take `Cc1cccc(-c2nn3c(c2-c2ccnc4ccc(C(N)=O)cc24)CCC3)n1` [Galunisertib] (top concentration 1000 nM): the “selective drug sensitivity score” value turned out to be 1.3.
Regarding `COc1cc2c(N3CCN(C(=O)Nc4ccc(OC(C)C)cc4)CC3)ncnc2cc1OCCCN1CCCCC1` [Tandutinib] (top concentration 1000 nM), the “selective drug sensitivity score” value came out at 0.
In the case of `Cc1c(F)cc(C(=O)NC2CC2)cc1-c1ccc(C(=O)NCC(C)(C)C)cn1` [Losmapimod] (top concentration 10000 nM), the “selective drug sensitivity score” value turned out to be 6.92.
Regarding `Nc1nc(N)c2nc(-c3cccc(O)c3)c(-c3cccc(O)c3)nc2n1` [TG100-115] (top concentration 10000 nM), the “selective drug sensitivity score” value is 1.6.
As for `C[C@]12CC[C@@H]3c4ccc(O)cc4C[C@@H](CCCCCCCCC[S+]([O-])CCCC(F)(F)C(F)(F)F)[C@H]3[C@@H]1CC[C@@H]2O` (stereo not given in full) [Fulvestrant] (top concentration 1000 nM), the “selective drug sensitivity score” value is 0.
`O=C(Nc1cccnc1)N1CCC(Cc2cccc(Oc3ccc(C(F)(F)F)cn3)c2)CC1` [PF-3845] (top concentration 10000 nM): the “selective drug sensitivity score” value is -0.84.
Regarding `COc1cc2c(cc1OCCCN1CCCC1)N=C(N)C21CCC1` [A-366] (top concentration 25000 nM), the “selective drug sensitivity score” value came out at 2.36.
For the compound `Oc1ncnc2[nH]ncc12` [Allopurinol] (top concentration 10000 nM), the “selective drug sensitivity score” value was -0.64.
For the compound `CC(C)n1cnc2c(NCCc3ccc(O)cc3)nc(-c3csc4ccccc34)nc21` [StemRegenin_1] (top concentration 10000 nM), the “selective drug sensitivity score” value was -0.5.
`C#Cc1cccc(Nc2ncnc3cc4c(cc23)OCCOCCOCCO4)c1` [Icotinib] (top concentration 10000 nM): the “selective drug sensitivity score” value was found to be 4.9.
As to `CN[C@@H](C)C(=O)N[C@H]1CN(C(=O)CC(C)C)CC[C@H]2CC[C@@H](C(=O)NC(c3ccccc3)c3ccccc3)N2C1=O` [AT-406] (top concentration 10000 nM), the “selective drug sensitivity score” value was -1.26.
On the same count and under the same terms, the figure for `CC(C)(O)CC(=O)NCCn1ccc2ncnc(Nc3ccc(Oc4cccc(C(F)(F)F)c4)c(Cl)c3)c21` [TAK-285] (top concentration 2500 nM) is 3.3; for `COc1cc(C)[nH]c(=O)c1CNC(=O)c1c(C)n([C@H](C)C2CCOCC2)c2ccccc12` [CPI-360] (top concentration 10000 nM) it is 0.
For `Cc1cc2c(C(=O)NC[C@H](C)c3ccccc3)c(O)c(O)cc2c(O)c1-c1c(C)cc2c(C(=O)NC[C@H](C)c3ccccc3)c(O)c(O)cc2c1O` [Sabutoclax] (top concentration 25000 nM), the “selective drug sensitivity score” value was 14.9.
Turning to `CC(C)(C)C[C@@H]1N[C@@H](C(=O)N[C@H]2CC[C@H](O)CC2)[C@H](c2cccc(Cl)c2F)[C@]12C(=O)Nc1cc(Cl)ccc12` (top concentration 10000 nM), the “selective drug sensitivity score” value came out at 16.4.
Consider `C[C@@H]1C[C@H]2[C@@H]3CCC4=CC(=O)C=C[C@]4(C)[C@@]3(F)[C@@H](O)C[C@]2(C)[C@@]1(O)C(=O)CO` [Dexamethasone] (top concentration 10000 nM), for which the “selective drug sensitivity score” value amounted to 1.78.

Another test concerns KOPN-8. Described as above. The settings on record: 72 h.
Regarding `Nc1nc2cc(-c3ccc4ncc(C(=O)N5CCOCC5)n4c3)ccc2o1` [Serabelisib] (top concentration 10000 nM), the “selective drug sensitivity score” value stood at 2.56.
Regarding `COc1cccc(-c2ccc(NC(=O)C3=C(C(=O)O)CCC3)c(F)c2)c1` [Vidofludimus] (top concentration 10000 nM), the “selective drug sensitivity score” value turned out to be 5.5.
In the case of `Cc1cccc(-c2nn3c(c2-c2ccnc4ccc(C(N)=O)cc24)CCC3)n1` [Galunisertib] (top concentration 1000 nM), the “selective drug sensitivity score” value is 0.
The same measure, in the same setting: the figure for `COc1cc2c(N3CCN(C(=O)Nc4ccc(OC(C)C)cc4)CC3)ncnc2cc1OCCCN1CCCCC1` [Tandutinib] (top concentration 1000 nM) is 0; for `Cc1c(F)cc(C(=O)NC2CC2)cc1-c1ccc(C(=O)NCC(C)(C)C)cn1` [Losmapimod] (top concentration 10000 nM) it is 4.42; for `Nc1nc(N)c2nc(-c3cccc(O)c3)c(-c3cccc(O)c3)nc2n1` [TG100-115] (top concentration 10000 nM) it is 2.7.
On the same count and under the same terms, the figure for `C[C@]12CC[C@@H]3c4ccc(O)cc4C[C@@H](CCCCCCCCC[S+]([O-])CCCC(F)(F)C(F)(F)F)[C@H]3[C@@H]1CC[C@@H]2O` (stereo not given in full) [Fulvestrant] (top concentration 1000 nM) is 0.
For `O=C(Nc1cccnc1)N1CCC(Cc2cccc(Oc3ccc(C(F)(F)F)cn3)c2)CC1` [PF-3845] (top concentration 10000 nM), the “selective drug sensitivity score” value worked out at 0.46.
Same read-out and setting: the result for `COc1cc2c(cc1OCCCN1CCCC1)N=C(N)C21CCC1` [A-366] (top concentration 25000 nM) reads -0.64; that for `Oc1ncnc2[nH]ncc12` [Allopurinol] (top concentration 10000 nM), -0.64; that for `CC(C)n1cnc2c(NCCc3ccc(O)cc3)nc(-c3csc4ccccc34)nc21` [StemRegenin_1] (top concentration 10000 nM), 0.1.
For `C#Cc1cccc(Nc2ncnc3cc4c(cc23)OCCOCCOCCO4)c1` [Icotinib] (top concentration 10000 nM), the “selective drug sensitivity score” value was determined as 5.7.
On to `CN[C@@H](C)C(=O)N[C@H]1CN(C(=O)CC(C)C)CC[C@H]2CC[C@@H](C(=O)NC(c3ccccc3)c3ccccc3)N2C1=O` [AT-406] (top concentration 10000 nM), for which the “selective drug sensitivity score” value was -1.26.
In the case of `CC(C)(O)CC(=O)NCCn1ccc2ncnc(Nc3ccc(Oc4cccc(C(F)(F)F)c4)c(Cl)c3)c21` [TAK-285] (top concentration 2500 nM), the “selective drug sensitivity score” value was 0.
For the compound `COc1cc(C)[nH]c(=O)c1CNC(=O)c1c(C)n([C@H](C)C2CCOCC2)c2ccccc12` [CPI-360] (top concentration 10000 nM), the “selective drug sensitivity score” value worked out at 0.
With `Cc1cc2c(C(=O)NC[C@H](C)c3ccccc3)c(O)c(O)cc2c(O)c1-c1c(C)cc2c(C(=O)NC[C@H](C)c3ccccc3)c(O)c(O)cc2c1O` [Sabutoclax] (top concentration 25000 nM), the “selective drug sensitivity score” value was 17.9.
On to `CC(C)(C)C[C@@H]1N[C@@H](C(=O)N[C@H]2CC[C@H](O)CC2)[C@H](c2cccc(Cl)c2F)[C@]12C(=O)Nc1cc(Cl)ccc12` (top concentration 10000 nM), for which the “selective drug sensitivity score” value stood at 12.9.
On the same count and under the same terms, the figure for `C[C@@H]1C[C@H]2[C@@H]3CCC4=CC(=O)C=C[C@]4(C)[C@@]3(F)[C@@H](O)C[C@]2(C)[C@@]1(O)C(=O)CO` [Dexamethasone] (top concentration 10000 nM) is 33.9.

Values taken from the supplement of paper PMC8967900.
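Note: ALL cell lines in 384-well plates, five doses spanning 10,000-fold, each plate scaled between vehicle and 100 µmol/L benzalkonium chloride controls, sDSS an adapted area-under-curve metric.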
